One data set deals with 293T cells. Type of data set: cell-based, human. As to conditions: for Effect of other salts on enhancing TAN-mediated transfection: salt in place of CaCl2. The protocol:
293T (human embryonic kidney) cells were grown in Dulbecco's modified Eagle's medium (Life Technologies, Rockville, Md.) supplemented with 10% FBS, 100 units/ml penicillin, and 100 μg/ml of streptomycin in a 37° C. CO2 incubator. Cells were regularly passed to maintain growth. Twenty-four hours before transfection, cells were trypsinized and plated on 96-well plates (100 μl/well) in the above medium without the antibiotics. Ten μl of fraction 2 was added to 293T cells at 15% confluency in serum-containing medium. Fluorescence microscopy was performed at 12 hours, after changing medium and washing cells.
TAN (SEQ ID NO:3) at 0.1 to 5 μg per 96-well transfection was mixed with 0.1 μg plasmid pEGFP-N1 (BD ClonTech) for 5 min, diluted in 40 μl DMEM, then added to cells. Fluorescence microscopy was performed at different time points to observe the expression of GFP as the indication of transfection event. Note that by using GFP as reporter, the total transfection efficiency was underestimated due to certain percentage of cells would not express the GFP to levels high enough for detection.
Different concentrations of TAN (SEQ ID NO:3) and CaCl2 were tested in combination for transfection. TAT (SEQ ID NO:1) and another peptide, HT 31 (a widely used PKA-anchor interaction interruption peptide) were included as controls. Generally, experiments were performed similarly as in the above examples except that peptide was added to DNA first, followed by addition of CaCl2.

In data set [1] the test system is approximately 300 bp PCR product linear dsDNA. The experiment in a line: Band-shift assay with short linear dsDNA (siRNA-expressing PCR product). Type of data set: binding. As to conditions: 30 min reaction, 2% gel. The protocol: In order to examine whether TAN could directly interact with the transfected plasmid DNA as predicted by the transfection results, band-shift assays were performed. Different amount of TAN (SEQ ID NO:3) dissolved in H2O was mixed with 0.5 μg of plasmid with or without 15 mM CaCl2, incubated for 5 min, followed by addition of 2 μl of DNA loading dye (30% glycerol), and loaded to 0.7% agarose gel. The EB-containing gel was run for about 45 min at 120 volts before the picture taken under UV lights.
The ability of TAN (SEQ ID NO:3) to bind short linear dsDNA also was examined. The DNA tested was an approximately 300 bp PCR product that is used to express small interfering RNAs (siRNAs). The experiments were done similarly to those described in Example 6, except that the reactions were allowed to proceed to 30 min and the gel was 2%. […] This difference may be due to a difference in the relative amount of DNA in each type of complex or to the structural constrains of linear versus circular DNA. […] Because these cassettes express siRNAs under the control of Pol III promoter as apposed to Pol II in GFP expression unit, it is therefore likely that peptide assisted transfection (PAT) is independent of promoter used, as expected.

Data set [2] concerns monkey kidney cell Vero-E6. The experiment in a line: Peptide as additive to TransIt-Oligo reagent transfection of pEFGP-N1. Type of data set: cell-based. The conditions noted are these: 0.1 μg plasmid, 96-well, about 30% confluency, increasing amount of peptide.

Ends that are not written are not given here.

Take `[Cl-].[Cl-].[Mg+2]` [MgCl2]: in the data set on 293T cells, the “Effect of other salts on enhancing TAN-mediated transfection” value is listed as “showed no effect”. Same read-out and setting: under `[Cl-].[Na+]` [NaCl] stands “showed no effect”. Regarding YGRKKRRQRRR [TAT], in data set [1], the “Behaviour at slightly increased concentration” value was “quickly precipitated DNA” and the “Binding to linear dsDNA (band shift)” value is given as “did not bind at the lower concentrations”. For the same compound, the “Effect of control peptide together with CaCl2” value with 293T cells (control peptides with CaCl2 and DNA) is “caused cells to lyse”. Further, the “Enhancement of TransIt-Oligo transfection by peptide” value in data set [2] is on record as “did not show such enhancement”. For YGRKKRRQRRRGQRNPNKKWS [TAN], in the data set with 293T cells (peptide/Ca++ transfection), the “Toxicity to treated cells (growth arrest, cell death)” value is reported as “did not show arrest of growth or cell death”.

The record behind these values is patent US20050042603A1, “Compositions and methods for peptide-assisted transfection” (Allele Biotechnology & Pharmaceuticals, Inc., priority 2003, published 2005).
